Activity calls are given as the source filed them. The rule behind the calls is not given here.
Key:
[1] = target: T1, Glutaminase liver isoform, mitochondrial (Homo sapiens, UniProt Q9UI32); assay: Inhibition of GLS2 (unknown origin)
T1 sequence (Q9UI32 whole entry): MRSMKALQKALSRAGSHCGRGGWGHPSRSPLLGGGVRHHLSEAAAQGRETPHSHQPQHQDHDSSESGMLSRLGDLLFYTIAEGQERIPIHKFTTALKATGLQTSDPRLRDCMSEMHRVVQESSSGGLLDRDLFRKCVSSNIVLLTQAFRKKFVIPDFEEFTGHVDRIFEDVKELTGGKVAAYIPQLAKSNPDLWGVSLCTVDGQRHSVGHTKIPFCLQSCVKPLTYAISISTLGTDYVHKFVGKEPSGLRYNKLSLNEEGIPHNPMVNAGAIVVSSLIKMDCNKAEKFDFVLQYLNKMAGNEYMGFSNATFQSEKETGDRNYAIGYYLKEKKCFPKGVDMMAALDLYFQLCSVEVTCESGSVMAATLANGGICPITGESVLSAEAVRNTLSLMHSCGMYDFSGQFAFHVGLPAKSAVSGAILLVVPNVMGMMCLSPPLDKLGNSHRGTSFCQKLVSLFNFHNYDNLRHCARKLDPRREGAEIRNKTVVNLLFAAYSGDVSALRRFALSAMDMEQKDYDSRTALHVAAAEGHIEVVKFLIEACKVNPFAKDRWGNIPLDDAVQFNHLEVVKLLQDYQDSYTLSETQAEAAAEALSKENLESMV

A549 [2] = assay: Antiproliferative activity against human A549 cells assessed as reduction in cell viability; format: functional, cell-based
HCT-116 [3] = assay: Inhibition of colony formation in human HCT-116 cells at 2 to 8 uM; format: functional, cell-based; conditions: dose 2-8 µM
A549 [4] = assay: Inhibition of colony formation in human A549 cells at 2 to 8 uM; format: functional, cell-based; conditions: dose 2-8 µM
HCT-116 [5] = assay: cells; conditions: Homo sapiens
A549 [6] = assay: Inhibition of glutaminase in human A549 cells assessed as ratio of glutamine to glutamate level (Rv b= 0.45 +/- 0.011); format: cell-based
[7] = human, microsomes
Description: Metabolic stability in human liver microsome assessed as intrinsic clearance

[8] = target: T2, Glutaminase kidney isoform, mitochondrial (Homo sapiens, UniProt O94925); assay: Inhibition of GLS1 (unknown origin)
T2 sequence (O94925 whole entry): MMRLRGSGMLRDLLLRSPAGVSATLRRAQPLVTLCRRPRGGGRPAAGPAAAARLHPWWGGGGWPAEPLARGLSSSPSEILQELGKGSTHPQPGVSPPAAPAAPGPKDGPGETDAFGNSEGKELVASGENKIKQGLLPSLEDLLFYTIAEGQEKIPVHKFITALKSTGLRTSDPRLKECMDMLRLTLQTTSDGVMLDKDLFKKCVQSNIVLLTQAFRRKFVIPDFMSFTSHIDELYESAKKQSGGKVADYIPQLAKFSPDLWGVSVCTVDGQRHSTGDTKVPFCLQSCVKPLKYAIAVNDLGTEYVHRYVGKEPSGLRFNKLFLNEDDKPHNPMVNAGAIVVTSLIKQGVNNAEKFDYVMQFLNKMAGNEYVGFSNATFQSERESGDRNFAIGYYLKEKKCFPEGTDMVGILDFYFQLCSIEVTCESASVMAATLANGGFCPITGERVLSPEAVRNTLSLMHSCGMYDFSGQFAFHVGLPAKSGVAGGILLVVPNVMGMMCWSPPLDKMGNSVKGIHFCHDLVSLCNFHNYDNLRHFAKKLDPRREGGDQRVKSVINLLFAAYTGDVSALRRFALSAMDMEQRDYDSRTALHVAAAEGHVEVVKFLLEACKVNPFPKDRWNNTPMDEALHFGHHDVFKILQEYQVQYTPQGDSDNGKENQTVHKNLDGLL

in vitro = conditions: human, liver microsomes
Homo sapiens = species on record: Homo sapiens; assay: Selectivity ratio of IC50 for GLS2 (unknown origin) to IC50 for GLS1 (unknown origin)
HCT-116 [9] = assay: Potency index, ratio of BPTES IC50 to test compound IC50 for antiproliferative activity against human HCT-116 cells; format: functional
A549 [10] = assay: Potency index, ratio of BPTES IC50 to test compound IC50 for antiproliferative activity against human A549 cells; format: functional
[11] = AUC(0 to t) in rat at 5 mg/kg, iv; format: ADME, organism-based; design: dose 5 mg/kg, route iv; conditions: in vivo
in vivo [12] = conditions: rat, po, 5 mg/kg
in vivo [13] = conditions: rat, iv, 5 mg/kg
HCT-116 [14] = assay: Antitumor activity against human HCT-116 cells xenografted in mouse model assessed as tumor growth inhibition at 100 mg/kg once daily via oral gavage administered for 28 days relative to control; format: functional; design: scale not given: the % may be the effect or the level left; conditions: time 28 day
[15] = AUC(0 to t) in rat at 3 mg/kg, iv; format: ADME, organism-based; design: dose 3 mg/kg, route iv; conditions: in vivo
A549 [16] = assay: Induction of apoptosis in human A549 cells assessed as late apoptotic cells at 5 uM incubated for 48 hrs by annexin V-FITC and propidium iodide based flow cytometry analysis (Rvb =9.696%); format: functional
A549 [17] = assay: Antitumor activity against human A549 cells xenografted in mouse model assessed as tumor growth inhibition at 100 mg/kg once daily via oral gavage administered for 28 days relative to control; format: functional; design: scale not given: the % may be the effect or the level left; conditions: time 28 day
A549 [18] = assay: Induction of apoptosis in human A549 cells assessed as early apoptotic cells at 10 uM incubated for 48 hrs by annexin V-FITC and propidium iodide based flow cytometry analysis (Rvb =12.289%); format: functional
A549 [19] = assay: Induction of apoptosis in human A549 cells assessed as early apoptotic cells at 5 uM incubated for 48 hrs by annexin V-FITC and propidium iodide based flow cytometry analysis (Rvb =12.289%); format: functional
A549 [20] = assay: Induction of apoptosis in human A549 cells assessed as late apoptotic cells at 1 uM incubated for 48 hrs by annexin V-FITC and propidium iodide based flow cytometry analysis (Rvb =9.696%); format: functional
A549 [21] = assay: Induction of apoptosis in human A549 cells assessed as late apoptotic cells at 10 uM incubated for 48 hrs by annexin V-FITC and propidium iodide based flow cytometry analysis (Rvb =9.696%); format: functional
[22] = Cmax in rat at 5 mg/kg, po; format: ADME, organism-based; design: dose 5 mg/kg, route po; conditions: in vivo
[23] = AUC(0 to t) in rat at 5 mg/kg, po; format: ADME, organism-based; design: dose 5 mg/kg, route po; conditions: in vivo
[24] = Oral bioavailability in rat at 5 mg/kg; format: ADME, organism-based; conditions: in vivo
HCT-116 [25] = assay: Antitumor activity against human HCT-116 cells xenografted in mouse model assessed as reduction in tumor cells at 100 mg/kg administered via oral gavage for 28 days; format: functional, organism-based; conditions: time 28.0 day
[26] = Cmax in rat at 5 mg/kg, iv; format: ADME, organism-based; design: dose 5 mg/kg, route iv; conditions: in vivo
A549 [27] = assay: Induction of apoptosis in human A549 cells assessed as early apoptotic cells at 1 uM incubated for 48 hrs by annexin V-FITC and propidium iodide based flow cytometry analysis (Rvb =12.289%); format: functional
[28] = target: T3, Glutaminase kidney isoform, mitochondrial (Homo sapiens) (UniProt O94925); assay: Potency index, ratio of BPTES IC50 to test compound IC50 for inhibition of GLS1 (unknown origin)
T3 sequence (whole entry): T2 sequence (O94925 whole entry)

Structure (SMILES)	IC50 [1] [µM]	IC50 (A549 [2]) [µM]	IC50 (HCT-116 [5]) [µM]	CLH [7] [g/mL/min]	IC50 [8] [µM]	half-life (in vitro) [h]	Ratio IC50 (Homo sapiens)	inhibition (HCT-116 [3])	inhibition (A549 [4])	Ratio (A549 [6])	further results
C=CCCC(=O)N1CCC(CNC(=O)c2ccc(COCCC3CCN(c4nnc(NC(=O)Cc5ccccc5)s4)CC3)cc2)CC1		1.36	2.07		0.268			Active	Active		
CCCN1CCC(CNC(=O)c2ccc(COCCC3CCN(c4nnc(NC(=O)Cc5ccccc5)s4)CC3)cc2)CC1		1.32	1.69		0.29						Ratio IC50 (HCT-116 [9]): 20; Ratio IC50 (A549 [10]): 20
CCCCCCN1CCC(CNC(=O)c2ccc(COCCC3CCN(c4nnc(NC(=O)Cc5ccccc5)s4)CC3)cc2)CC1	> 15	0.74	0.34	22.3	0.088	> 2	> 100			1.42	
O=C(Cc1ccccc1)Nc1nnc(CCSCCc2nnc(NC(=O)Cc3ccccc3)s2)s1		49	44					Active	Active		AUCt [11]: 543.3 ng·h/mL; half-life (in vivo [12]): 2.6 h; half-life (in vivo [13]): 3.8 h; Activity (HCT-116 [14]): 22.3%; AUC(0-t) [15]: 2090 ng·h/mL; Activity (A549 [16]): 11.666%; Activity (A549 [17]): 18.8%; Activity (A549 [18]): 9.331%; Activity (A549 [19]): 15.055%; Activity (A549 [20]): 8.746%; Activity (A549 [21]): 14.31%; Cmax [22]: 17.8 ng/mL; AUC(0-t) [23]: 12.5 ng·h/mL; bioavailability [24]: 2.3%; Activity (HCT-116 [25]): Active; Cmax [26]: 493 ng/mL; Activity (A549 [27]): 15.403%
Cc1ccccc1CN1CCC(CNC(=O)c2cccc(COCCC3CCN(c4nnc(NC(=O)Cc5ccccc5)s4)CC3)c2)CC1	> 15	0.98	0.55	46.8	0.085	> 2	> 100	Active	Active	1.49	Ratio IC50 [28]: 50

The next lines start with results.

IC50 [1] [µM]	IC50 (A549 [2]) [µM]	IC50 (HCT-116 [5]) [µM]	CLH [7] [g/mL/min]	IC50 [8] [µM]	half-life (in vitro) [h]	Ratio IC50 (Homo sapiens)	Structure (SMILES)	inhibition (HCT-116 [3])	inhibition (A549 [4])	Ratio (A549 [6])	further results
> 15	0.87	1.13	21.2	0.065	> 2	> 100	CN1CCN(c2cccc(NC(=O)c3cccc(CN4CCN(c5nnc(NC(=O)Cc6ccccc6)s5)CC4)c3)c2)CC1	Active	Active	1.17	
> 15	0.76	0.53	56.4	0.066	1.12	> 100	CN1CCN(c2ccc(C(=O)Nc3ccc(CN4CCN(c5nnc(NC(=O)Cc6ccccc6)s5)CC4)cc3)cc2)CC1			0.8	
> 15	0.65	0.26	35.8	0.062	> 2	> 100	CN1CCN(c2cccc(NC(=O)c3ccc(COCCC4CCN(c5nnc(NC(=O)Cc6ccccc6)s5)CC4)cc3)c2)CC1			0.74	
	2.31	1.51		0.32			CN1CCC(CNC(=O)c2ccc(COCCC3CCN(c4nnc(NC(=O)Cc5ccccc5)s4)CC3)cc2)CC1				Ratio IC50 (HCT-116 [9]): 20; Ratio IC50 (A549 [10]): 20
> 15	0.97	0.52	60.3	0.079	1.04	> 100	CN1CCN(c2cccc(NC(=O)c3ccc(CN4CCN(c5nnc(NC(=O)Cc6ccccc6)s5)CC4)cc3)c2)CC1			1.1	

Reference: ChEMBL document CHEMBL5352409, “Design, synthesis, and pharmacological evaluation of 2-(1-(1,3,4-thiadiazol-2-yl)piperidin-4-yl)ethan-1-ol analogs as novel glutaminase 1 inhibitors” (Eur J Med Chem, 2022)
